In US9757375B2, “Compounds that inhibit human DNA ligases and methods of treating cancer” (University of Maryland, Baltimore, priority 2007, dated 2017):
“Also recorded” adds a separate entry of the source. Like-named read-outs stand apart in the source and are kept apart here.

Assays:
[1] = target: T1, human DNA ligase III (Homo sapiens, UniProt P49916); assay: High-throughput fluorescence-based DNA joining (ligation) assay; type: biochemical; settings: for inhibition at 100 µM: read-out: In vitro % inhib hLigIII 100; for % activity Inhibition hLigIII 100 uM: Ø not defined (0 in Table 5A)
T1 sequence (P49916 1-862 isoform P49916-4): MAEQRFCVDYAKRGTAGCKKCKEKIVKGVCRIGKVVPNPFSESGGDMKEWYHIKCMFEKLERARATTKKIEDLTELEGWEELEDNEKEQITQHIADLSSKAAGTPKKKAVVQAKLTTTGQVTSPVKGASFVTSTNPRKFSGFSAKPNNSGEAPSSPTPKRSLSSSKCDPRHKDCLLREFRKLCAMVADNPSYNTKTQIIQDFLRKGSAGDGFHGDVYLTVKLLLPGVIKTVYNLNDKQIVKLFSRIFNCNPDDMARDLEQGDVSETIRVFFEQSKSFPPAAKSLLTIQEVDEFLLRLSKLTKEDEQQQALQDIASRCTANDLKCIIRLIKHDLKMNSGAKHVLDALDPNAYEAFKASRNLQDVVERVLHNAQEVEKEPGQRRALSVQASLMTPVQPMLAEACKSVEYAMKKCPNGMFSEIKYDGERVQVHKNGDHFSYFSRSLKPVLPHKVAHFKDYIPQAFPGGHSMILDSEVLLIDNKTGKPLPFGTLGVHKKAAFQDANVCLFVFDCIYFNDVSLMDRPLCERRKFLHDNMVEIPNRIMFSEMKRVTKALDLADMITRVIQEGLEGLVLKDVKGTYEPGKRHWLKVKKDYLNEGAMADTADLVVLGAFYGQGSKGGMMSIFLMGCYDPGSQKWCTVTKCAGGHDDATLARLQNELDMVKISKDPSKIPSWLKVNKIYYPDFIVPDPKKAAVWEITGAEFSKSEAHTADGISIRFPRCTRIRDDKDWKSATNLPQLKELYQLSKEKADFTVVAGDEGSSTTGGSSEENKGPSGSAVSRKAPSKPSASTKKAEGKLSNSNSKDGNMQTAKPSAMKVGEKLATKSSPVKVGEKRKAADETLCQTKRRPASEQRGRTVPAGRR
Method in brief: (§1)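 Ligation joins an AF488-labelled and a BHQ1-labelled oligonucleotide. After denaturation and renaturation with a 20-fold excess of unlabelled competitor strand, the product forms a quenched hairpin, so joining is read as loss of 518 nm fluorescence. Ligase III used a nicked duplex; ligase IV used two duplexes with short complementary single-strand ends.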

[2] = target: human DNA ligase IV (Homo sapiens, UniProt P49917); assay: as above; type: biochemical; settings: for inhibition of human DNA ligase IV, in words: in vitro screen
Method in brief: as §1

[3] = target: T2, hLigI (Homo sapiens, UniProt P18858); assay: as above; type: biochemical; settings: for inhibition of hLigI (DNA ligase I), in words: in vitro screen, 100 μmol/L, the 15 hLigI inhibitors inhibited by >50%
T2 construct: made in house
Method in brief: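 Nicked DNA substrate (10 pmol) was incubated with 0.25 pmol hLigI, with or without 100 μmol/L test compound, in duplicate. Afterwards the DNA was denatured and renatured with a 20-fold excess of unmodified oligonucleotide. Ligation forms an AF488/BHQ1 hairpin, read as reduced fluorescence at 518 nm.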

[4] = target: T3, T4 DNA ligase (Enterobacteria phage T4, UniProt P00970); assay: High-throughput fluorescence-based DNA joining assay, non-specific inhibitor control; type: biochemical, bacteriophage T4
T3 construct: purchased NEB
T3 sequence (P00970 1-487): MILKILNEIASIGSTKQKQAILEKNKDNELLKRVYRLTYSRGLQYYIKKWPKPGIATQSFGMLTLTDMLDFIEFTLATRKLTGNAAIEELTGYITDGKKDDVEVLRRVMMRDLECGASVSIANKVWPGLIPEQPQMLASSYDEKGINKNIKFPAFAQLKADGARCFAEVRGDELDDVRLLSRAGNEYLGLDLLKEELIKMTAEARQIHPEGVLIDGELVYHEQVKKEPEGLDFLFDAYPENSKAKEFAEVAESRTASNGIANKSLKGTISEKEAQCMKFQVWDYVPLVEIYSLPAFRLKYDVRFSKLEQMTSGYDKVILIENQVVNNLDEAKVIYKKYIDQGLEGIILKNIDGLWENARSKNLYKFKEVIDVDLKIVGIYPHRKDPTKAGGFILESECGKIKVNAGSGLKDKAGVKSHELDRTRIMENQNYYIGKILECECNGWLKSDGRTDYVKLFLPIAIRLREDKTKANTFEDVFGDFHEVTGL
Method in brief: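 This counter-screen used a FRET-based DNA joining assay. Duplicate reactions held 10 pmol nicked DNA substrate and 10 units T4 DNA ligase, with or without 100 μmol/L compound. T4 ligase lacks the DNA-binding domain targeted in silico, so compounds inhibiting it were flagged as non-specific, likely DNA-binding.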

[5] = target: T4, hLigIIIβ (Homo sapiens, UniProt P49916); assay: Radioactive gel-based DNA ligation assay; type: biochemical; settings: grades ±, Ø (key not given)
T4 sequence (P49916 1-862 isoform P49916-4): T1 sequence (P49916 1-862 isoform P49916-4)

[6] = tested on: Human DNA ligases I, III and IV and T4 DNA ligase; assay: Step 3 of the ligation reaction: ligation of preadenylated nick by non-adenylated ligase; type: biochemical; settings: 100 μM, FIG. 3C
Procedure: To analyze step 3 of the ligation reaction, an adenylated labeled version of the 18-mer was prepared as described (24). The DNA substrate containing a preadenylated nick (0.5 pmol) and hLigI (0.05 pmol), hLigIIIβ (0.05 pmol), hLigIV/XRCC4 (0.1 pmol), or T4 DNA ligase (0.05 pmol) were incubated in ligation buffer without ATP, either in the presence or absence of the ligase inhibitors (100 μmol/L). Reactions were stopped by the addition of an equal volume of gel loading dye (95% formamide, 0.05% bromophenol blue, and 0.05% xylene cyanol). After heating at 95° C. for 5 min, DNA was separated by denaturing polyacrylamide gel electrophoresis. Labeled oligonucleotides were detected and quantitated in the dried gel by phosphorImager analysis (Molecular Dynamics).
Since the final two steps of the ligation reaction involve interactions with DNA, we examined the effects of the ligase inhibitors on the second (FIG. 3B) (The labeled ligase-adenylate form of human DNA ligases I, III and IV and T4 DNA ligase were incubated with a linear DNA substrate containing a single non-ligatable nick in the absence or presence of compounds 67, 82 and 189 (100 μM). After separation by denaturing gel electrophoresis, the labeled DNA-AMP complex was detected by phosphorimaging (26)) and third steps (FIG. 3C) of the ligation reaction using established assays (25,26) (Non-adenylated human DNA ligases I, III and IV and T4 DNA ligase were incubated with labeled DNA-AMP in the absence or presence of compounds 67, 82 and 189 (100 μM). After separation by denaturing gel electrophoresis, labeled ligated DNA was detected by phosphorimaging (25)).

[7] = target: hLigIV/XRCC4 (Homo sapiens, UniProt P49917); assay: Radioactive gel-based DNA ligation assay; type: biochemical; parameters: concentration or dose not given beside the values
[8] = tested on: MCF7, HCT116, HeLa, and MCF10A cells; assay: Survival assay on cell panel (FIG. 9); type: cell-based, human; settings: Homo sapiens; cell line not stated
Source text: FIG. 9. […] A, effect of L67 (left) and L189 (right) on the survival of MCF7 (Δ), HCT116 (□), HeLa (⋄), and MCF10A (upsidedown triangle) cells. B, normal breast epithelial MCF10A cells (open symbols) and breast cancer MCF7 cells (filled symbols) in the absence (circles) or presence of 3 μmol/L of L67 (squares) were exposed to increasing concentrations of MMS (left). Normal breast epithelial MCF10A cells (open symbols) and colon cancer HCT116 cells (filled symbols) in the absence (circles) or presence of 20 μmol/L of L189 (squares) were exposed to increasing doses of ionizing radiation (right). C, hLigI (I), hLigIIIα (III), and hLigIV (IV) were detected in extracts (400 μg) of the indicated cell lines by immunoblotting. To control for extract loading β-actin was also detected by immunoblotting.
For survival assays, cells were plated in 6 well plates and grown either in the absence or presence of ligase inhibitors. Where indicated, either MMS (0-50 μM) was added to the medium or the cells were irradiated in a Cs-137 irradiator (0-2.5 Gy). After two weeks, colonies were stained with crystal violet (Sigma) and then counted.

[9] = 100 μM, read-out: In vitro % inhib hLigIV 100
[10] = 100 uM, Ø not defined (0 in Table 5A)
[11] = 100 μM, read-out: In vitro % inhib hLigI 100
[12] = 100 μM, read-out: In vitro % inhib T4 100
[13] = 100 uM, Ø not defined (0 in Table 5A), read-out: % activity Inhibition hLigIV 100 uM

T2 sequence (P18858 whole entry): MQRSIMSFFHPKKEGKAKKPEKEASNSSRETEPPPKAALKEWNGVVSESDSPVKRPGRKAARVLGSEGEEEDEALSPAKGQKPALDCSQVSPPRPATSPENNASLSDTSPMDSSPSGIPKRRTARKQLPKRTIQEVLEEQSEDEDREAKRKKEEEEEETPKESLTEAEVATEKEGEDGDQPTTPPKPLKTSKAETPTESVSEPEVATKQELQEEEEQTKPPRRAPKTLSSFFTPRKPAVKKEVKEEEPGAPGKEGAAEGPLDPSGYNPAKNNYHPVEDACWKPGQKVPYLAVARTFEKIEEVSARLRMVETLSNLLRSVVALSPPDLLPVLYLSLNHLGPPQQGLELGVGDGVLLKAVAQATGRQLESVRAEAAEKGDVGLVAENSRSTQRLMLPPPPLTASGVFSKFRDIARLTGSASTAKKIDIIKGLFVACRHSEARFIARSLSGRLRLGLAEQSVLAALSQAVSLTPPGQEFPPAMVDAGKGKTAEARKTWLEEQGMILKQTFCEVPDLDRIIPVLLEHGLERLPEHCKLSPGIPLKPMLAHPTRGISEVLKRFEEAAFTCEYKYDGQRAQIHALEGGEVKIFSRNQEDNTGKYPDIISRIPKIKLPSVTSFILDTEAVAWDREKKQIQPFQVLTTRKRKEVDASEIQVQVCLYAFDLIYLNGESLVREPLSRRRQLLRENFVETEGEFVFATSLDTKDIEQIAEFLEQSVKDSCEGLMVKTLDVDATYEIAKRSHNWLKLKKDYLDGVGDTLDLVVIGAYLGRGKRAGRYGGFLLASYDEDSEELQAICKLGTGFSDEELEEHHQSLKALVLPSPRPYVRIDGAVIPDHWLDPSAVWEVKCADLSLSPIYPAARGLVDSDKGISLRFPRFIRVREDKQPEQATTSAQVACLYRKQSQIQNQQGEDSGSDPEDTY
Sequence of human DNA ligase IV (P49917 whole entry): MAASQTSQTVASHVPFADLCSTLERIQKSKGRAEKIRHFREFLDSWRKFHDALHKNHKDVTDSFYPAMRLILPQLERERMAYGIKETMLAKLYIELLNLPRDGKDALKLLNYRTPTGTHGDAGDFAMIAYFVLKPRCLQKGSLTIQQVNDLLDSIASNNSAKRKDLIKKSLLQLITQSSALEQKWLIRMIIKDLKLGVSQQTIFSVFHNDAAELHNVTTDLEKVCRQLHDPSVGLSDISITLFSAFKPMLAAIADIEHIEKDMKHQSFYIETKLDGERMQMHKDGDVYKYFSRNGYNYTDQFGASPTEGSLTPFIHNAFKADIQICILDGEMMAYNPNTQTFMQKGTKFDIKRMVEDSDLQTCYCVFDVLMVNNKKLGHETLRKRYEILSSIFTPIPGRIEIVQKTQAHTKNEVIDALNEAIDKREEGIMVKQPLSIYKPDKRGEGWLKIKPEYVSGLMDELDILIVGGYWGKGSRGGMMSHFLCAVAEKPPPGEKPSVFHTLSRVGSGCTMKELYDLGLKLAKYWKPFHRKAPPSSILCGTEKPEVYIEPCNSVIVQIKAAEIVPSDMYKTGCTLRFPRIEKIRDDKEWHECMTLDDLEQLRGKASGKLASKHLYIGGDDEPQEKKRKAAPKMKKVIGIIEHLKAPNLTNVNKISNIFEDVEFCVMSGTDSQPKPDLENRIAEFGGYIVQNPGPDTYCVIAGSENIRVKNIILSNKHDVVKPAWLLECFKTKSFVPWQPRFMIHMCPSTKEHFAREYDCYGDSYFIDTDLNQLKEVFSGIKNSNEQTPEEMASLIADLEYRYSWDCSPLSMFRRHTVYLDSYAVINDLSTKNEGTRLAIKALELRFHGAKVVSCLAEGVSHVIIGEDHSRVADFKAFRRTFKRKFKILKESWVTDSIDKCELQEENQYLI
Sequence of human DNA ligase IV (Q13426 whole entry partner): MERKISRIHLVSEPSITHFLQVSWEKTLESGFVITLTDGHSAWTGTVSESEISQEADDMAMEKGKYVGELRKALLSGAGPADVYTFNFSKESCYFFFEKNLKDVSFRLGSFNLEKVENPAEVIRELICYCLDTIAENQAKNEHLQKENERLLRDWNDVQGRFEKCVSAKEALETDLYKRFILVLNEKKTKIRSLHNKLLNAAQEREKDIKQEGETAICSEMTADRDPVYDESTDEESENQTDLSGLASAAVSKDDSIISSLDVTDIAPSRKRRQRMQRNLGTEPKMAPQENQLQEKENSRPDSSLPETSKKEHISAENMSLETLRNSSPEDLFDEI
Sequence of hLigIV/XRCC4 (P49917 whole entry): as the sequence (P49917 whole entry) above
Sequence of hLigIV/XRCC4 (Q13426 whole entry partner): as the sequence (Q13426 whole entry partner) above

Row | Structure (SMILES) | inhibition at 100 µM ([1]; 100 μM) | % activity Inhibition hLigIII 100 uM [1] | inhibition at 100 µM [2, 9] | % activity Inhibition hLigIV 100 uM [2, 10] | inhibition at 100 µM [3, 11] | inhibition of hLigI (DNA ligase I), in words [3] | inhibition at 100 µM [4, 12] | % activity Inhibition hLigIII gel [5] | inhibition of human DNA ligase IV, in words [2] | % activity Inhibition hLigI 100 uM ([3]; 100 uM) | % activity Inhibition hLigIV gel [7] | % activity Inhibition LigT4 100 uM [4] | EC50 [8] | inhibition at 100 µM [2, 13] | other results
1 | CSc1ccc(C(=O)O)s1 [Compound 1] | 0% | Ø | 0% | Ø | 40 ± 9% | specific for DNA ligase I | 0% | Ø |  |  |  |  |  |  | inhibition at 100 µM ([3]; 100 uM, read-out: % activity Inhibition hLigI 100 uM): 40.3 ± 8.6%; inhibition at 100 µM ([4]; read-out: % activity Inhibition LigT4 100 uM): 0%
2 | O=C(O)CN1C(=O)C(=O)c2ccccc21 [Compound 76] |  |  |  |  |  |  |  |  |  |  |  |  |  |  | inhibition of step 3 of the ligation reaction [6]: inhibit step 3
3 | NS(=O)(=O)c1ccc(CCNC(=O)CCS(=O)(=O)c2ccc(Br)cc2)cc1 [Compound 113] |  | Ø |  | >50% |  | inhibited hLigI; also recorded: specifically inhibits both DNA ligases I and IV |  | Ø | specifically inhibits both DNA ligases I and IV | 53.4 ± 7.6% | 83% | 5.4 ± 4.5% |  |  | In vitro % inhib hLigIII 100 (μM) ([1]; 100 μM): 0%; In vitro % inhib hLigIV 100 (μM) ([2]; 100 μM): 83 ± 5%; In vitro % inhib hLigI 100 (μM) ([3]; 100 μM): 53 ± 8%; hLigI_Inh % (100 μM) ([3]; 100 μM, percentage of values obtained with DMSO alone): 53.4 ± 7.6%; In vitro % inhib T4 100 (μM) ([4]; 100 μM): 5 ± 5%
4 | O=C(O)Cc1cncc(Br)c1 [Compound 122] | 0% | Ø | 50 ± 5% |  | 0% |  | 0% |  | specific for DNA ligase IV | Ø | 50% | Ø | > 100 µM | 16.1 ± 19.1% | 
5 | O=C(O)c1cnn2c(C(F)(F)F)cc(-c3ccco3)nc12 [Compound 215] | 0% | Ø | 61 ± 1% |  | 0% |  | 0% |  | specific for DNA ligase IV | Ø | 53% | Ø | > 100 µM | 60.7 ± 1.3% | 
